The source of these data is patent publication US20130144068A1, “Methods for the Sterilization of Bendamustine” (Cephalon, Inc., priority 2010, published 2013).

A short description of series [1]: HPLC purity of bendamustine HCl after sterilization. Type of series: physicochemical. As to the method: 100 mg each of bendamustine HCl was weighed into a 20 mL tubing vial, a 20 mL amber vial, and a 20 mL clear vial. Rubber stoppers were inserted and aluminum caps crimped on. The vials were passed through a gamma irradiation line and received doses in the range of 29.3 kGy to about 32.3 kGy. Purity and sterility testing was then performed.
100 mg each of bendamustine HCl was weighed into a 20 mL tubing vial, a 20 mL amber vial, and a 20 mL clear vial. Rubber stoppers were inserted and aluminum caps crimped on. The vials were passed through an electron beam irradiation line and received a dose of about 30 kGy. Purity and sterility testing was then performed.
To each 10 mg of bendamustine HCl, sterilized according to the methods described above, was added 10 mL N-methyl-2-pyrrolidone (NMP). A reference standard of bendamustine HCl was prepared in NMP having a concentration of 1 mg/mL. HPLC was performed according to conventional methods.

The conditions of series [2]: heating; background statement; cited from earlier work.

`Cl.Cn1c(CCCC(=O)O)nc2cc(N(CCCl)CCCl)ccc21` [bendamustine HCl, Bendamustine hydrochloride]: the “HPLC purity (% area)” value in series [1] (after E-beam irradiation, about 30 kGy, 100 mg solid in amber vial) is 99.70 % area; in series [1] (after E-beam irradiation, about 30 kGy, 100 mg solid in clear vial) it was 99.70 % area; in series [1] (after gamma irradiation, 29.3 kGy to about 32.3 kGy, 100 mg solid in amber vial) it was 99.70 % area; in series [1] (after gamma irradiation, 29.3 kGy to about 32.3 kGy, 100 mg solid in clear vial) it was 99.64 % area. Also, in series [2], the “Temperature at which the solid chars when heated” value was 160 °C.
